Patent US20220041665A1, “POLYNUCLEOTIDE AND USES THEREOF” (Helsingin yliopisto, priority 2019, published 2022)

What was measured:
Assay type in all cases: cell-based, human
[1] = test system: A431 cells with tagged DHC1; test: Analysis of cell division in A431 cells with tagged DHC1
Experimental: Cells were plated on μ-slide 8-well ibiTreat dishes at 0.1×10^5 cells per well 2 days before the experiment. On the experiment day, cells were loaded with 2 μM CellTracker™ Red CMTPX (Thermo, CAT #C34552) in complete medium for 15-30 min at 37° C. Medium was then changed to FluroBrite containing 10% FBS and incubated at 37° C. for 1-2 h before imaging to equilibrate the labelling. Cells were imaged with Nikon Eclipse Ti-E microscope equipped with 20× air objective, Nikon Perfect Focus System 3, Hamamatsu Flash 4.0 V2 scientific CMOS and Okolab stage top incubator system. Before recording, 6 fields for each of the 8 wells were selected with Celllracker™ Red fluorescence. IAA was then added at a final 0.5 mM concentration to IAA-treated cells, mixed well with pipetting, and time lapse imaging started immediately recording every 30 min for 16 h. Mitotic rounding cells were counted manually in the videos from 0.5 h to 6 h. Mitotic rounding cells without cell division were followed till 13 h.

[2] = test system: A549 cells with tagged EGFR; test: EGF uptake in A549 cells with tagged EGFR
Experimental: A549 cells were seeded at 0.4×10^5 cells per 4-well for 3 days. Medium was changed to fresh medium with or without 0.5 mM IAA for 1 h. Cells were washed twice with ice-cold serum free medium with 1% BSA and 0.2 ml of 2 μg/ml Alexa Fluor™ 647 EGF complex (ThermoFisher, E35351) in serum free medium with 1% BSA was added. Cells were further incubated at 37° C. for 20 min before harvesting with trypsin. Samples were kept on ice before FACS analysis. Alexa Fluor™ 647 was excited with 640 nm laser and detected with 720/40 detector, analysing 20 000 cells per sample. Negative control samples were cells incubated in medium without EGF complex. Background subtracted mean fluorescence intensity was used for analysis.

[3] = test system: seipin-mEGFP; test: FACS screen of auxin perceptive proteins and degrons (mean GFP intensity) in A431 cell pools; conditions: cells expressing AtAFB2 and seipin-mEGFP with degron insertion; 0 h, 1 h, 16 h IAA
Experimental: To search for an improved AID system to solve the issue, a pipeline was first established in human A431 cells to screen AID components (FIG. 2A). Various auxin perceptive proteins and degrons were selected for screening. Several TIR1 and AFB2 proteins from different plant species were tested, as well as degrons derived from AtIAA17 (SEQ ID NO: 3), these including amino acid (aa.) 65-132 (miniAID), aa. 62-109, aa. 71-114. All these degrons were included in the screen. […] These high affinity fragments were tested, assuming higher affinity might translate into more efficient inducible degradation. Degrons with KR dipeptide deletions were tested to see if they would have an effect on enhancing IAA binding affinity, IAA-inducible depletion or as part of a nuclear localization signal. […]
For FACS analysis, cells were seeded at 1:5 (for A431) or 1:3 (for A549) into 6-well plate in medium without selection on day 0. […] Cells were gated with SSC, FSC and trigger pulse width for singlets and 100 000 cells were analyzed for each sample. GFP was excited with 488 nm laser and detected with 530/40 detector; mCherry was excited with 561 nm lasers and detected with 615/20 detector. Data was analyzed with BD FACS Sortware. Background subtracted mean fluorescence intensity was used for analysis.

[4] = test system: seipin; test: Depletion of endogenous seipin tagged with mAID-mEGFP in A431 cells expressing OsTIR1; conditions: cells expressing OsTIR1, no IAA
seipin, sequence (Q96G97+P93830 fused): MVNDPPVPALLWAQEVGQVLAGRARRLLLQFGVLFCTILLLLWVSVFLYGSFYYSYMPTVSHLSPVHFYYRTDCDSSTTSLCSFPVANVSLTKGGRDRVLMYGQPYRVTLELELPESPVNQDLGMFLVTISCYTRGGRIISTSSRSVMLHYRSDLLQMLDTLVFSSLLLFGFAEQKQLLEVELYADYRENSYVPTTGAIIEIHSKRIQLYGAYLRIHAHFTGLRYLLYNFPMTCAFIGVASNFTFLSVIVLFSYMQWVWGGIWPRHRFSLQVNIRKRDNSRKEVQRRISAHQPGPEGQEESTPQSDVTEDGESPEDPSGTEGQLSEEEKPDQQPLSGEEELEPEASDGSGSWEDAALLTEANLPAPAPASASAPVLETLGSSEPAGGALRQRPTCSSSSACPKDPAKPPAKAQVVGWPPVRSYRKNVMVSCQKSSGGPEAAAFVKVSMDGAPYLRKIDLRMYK
Source text: Initially seipin, a conserved transmembrane protein in the endoplasmic reticulum (ER) involved in lipid droplet (LD) biogenesis, was targeted for degradation. To rapidly deplete seipin from human A431 cells, an AID system, composed of TIR1 derived from Oryza sativa (OsTIR1) and mAID degron of 65 amino acids corresponding to AAs 68-132 of AtIAA17 (SEQ ID NO: 3), referred herein to as miniAID, was first employed. To this end, the endogenous seipin was homozygously tagged with mAID-mEGFP.

[5] = control cells without auxin perceptive protein

O=C(O)Cc1c[nH]c2ccccc12 [IAA, indole-3-acetic acid]
fraction of mitotic rounding cells that completed cell division ([1]; DHC1-AtAFB2 cells, after IAA addition for 30 min (0.5 mM)): 0%
effect of IAA per se on cell division [1, 5]: did not affect
reduction of EGF uptake ([2]; EGFR-AtAFB2 cells, 1 h IAA treatment (0.5 mM)): 75%
effect of IAA per se on EGF uptake [2, 5]: did not affect

aa.82-101: minimal truncated AtIAA7 degron, aa. 82-101 of SEQ ID NO: 1 (QVVGWPPVRNYRKNMMTQQK; listed as Arabidopsis thaliana)
auxin-inducible degradation of truncated AtIAA7 degron [3]: similarly to miniIAA7

miniAID: mAID degron of 65 amino acids corresponding to AAs 68-132 of AtIAA17 (SEQ ID NO: 3)
degradation of tagged seipin without IAA addition [4]: severely degraded
